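Five compound concentrations were applied to cells in 96-well plates for 48 hours; endpoints were derived by simple linear interpolation of the resulting dose-response curve. The concentration for 50% growth inhibition is given as GI50.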 Activity calls are given as the source filed them. Cut-off read from the data, not from the text of the source: active = GI50 up to about 1.1 µM and inactive = higher.
Key:
Assay in all cases: NCI anticancer screen, dose series, 48 h
OVCAR-4 = test system: OVCAR-4
DMS-114 = test system: DMS-114
SK-MEL-28 = test system: SK-MEL-28
RXF 393 = test system: RXF 393
TK-10 = test system: TK-10
786-0 = test system: 786-0
ACHN = test system: ACHN
UACC-257 = test system: UACC-257
CCRF-CEM = test system: CCRF-CEM
A498 = test system: A498
LOX IMVI = test system: LOX IMVI
UACC-62 = test system: UACC-62
EKVX = test system: EKVX
HCT-15 = test system: HCT-15

SMILES	GI50 (OVCAR-4)	GI50 (DMS-114)	GI50 (SK-MEL-28)	GI50 (RXF 393)	GI50 (TK-10)	GI50 (786-0)	GI50 (ACHN)	GI50 (UACC-257)	GI50 (CCRF-CEM)	GI50 (A498)	GI50 (LOX IMVI)	GI50 (UACC-62)	GI50 (EKVX)	GI50 (HCT-15) [µM]
Nc1ccccc1SC(/C=C/NNC1=NN=C(c2ccccc2)C(c2ccccc2)N1)c1ccccc1 (centres undefined)	14.9 µM (inactive)	13.6 µM (inactive)	13.7 µM (inactive)	14 µM (inactive)	19 µM (inactive)	12.2 µM (inactive)	14.9 µM (inactive)	13.5 µM (inactive)	2.59 µM (inactive)	20.4 µM (inactive)	12.7 µM (inactive)	10.6 µM (inactive)	15.4 µM (inactive)	11.5
O=[N+]([O-])c1cc(C2SCc3nc4ccccc4n32)ccc1Cl (centres undefined)	–	20.1 µM (inactive)	25.9 µM (inactive)	25.3 µM (inactive)	47.5 µM (inactive)	34.3 µM (inactive)	27.5 µM (inactive)	22.3 µM (inactive)	24.9 µM (inactive)	18.1 µM (inactive)	–	18.6 µM (inactive)	31.4 µM (inactive)	–
CC1=C(C(=O)Nc2cc(=O)n(C)c(=O)n2C)C(c2ccc([N+](=O)[O-])cc2)C(C(=O)Nc2cc(=O)n(C)c(=O)n2C)=C(C)N1	31.5 µM (inactive)	73.5 µM (inactive)	> 100 µM (inactive)	> 100 µM (inactive)	> 100 µM (inactive)	84.9 µM (inactive)	68.2 µM (inactive)	86.7 µM (inactive)	> 100 µM (inactive)	> 100 µM (inactive)	54.6 µM (inactive)	26.5 µM (inactive)	> 100 µM (inactive)	> 100
CCOC(=O)C(C(C)=O)C1CC=CC1 (centres undefined)	> 100 µM (inactive)	> 100 µM (inactive)	> 100 µM (inactive)	> 100 µM (inactive)	> 100 µM (inactive)	> 100 µM (inactive)	> 100 µM (inactive)	> 100 µM (inactive)	> 100 µM (inactive)	–	> 100 µM (inactive)	> 100 µM (inactive)	> 100 µM (inactive)	> 100
CC(=O)c1cccc(NC(=O)C(=O)C(C(=O)NN)c2ccccc2)c1 (centres undefined)	> 100 µM (inactive)	> 100 µM (inactive)	> 100 µM (inactive)	> 100 µM (inactive)	> 100 µM (inactive)	> 100 µM (inactive)	> 100 µM (inactive)	> 100 µM (inactive)	> 100 µM (inactive)	> 100 µM (inactive)	> 100 µM (inactive)	> 100 µM (inactive)	> 100 µM (inactive)	> 100
CCn1cc(C(=O)O)c(=O)c2cc(F)c(N3CCNCC3)nc21 [ENOXACIN]	> 100 µM (inactive)	> 100 µM (inactive)	> 100 µM (inactive)	–	> 100 µM (inactive)	> 100 µM (inactive)	> 100 µM (inactive)	> 100 µM (inactive)	> 100 µM (inactive)	> 100 µM (inactive)	86.3 µM (inactive)	> 100 µM (inactive)	> 100 µM (inactive)	> 100
CCN(CC)C(=O)c1c(N2CCOCC2)cc(N(CC)CC)oc1=O	> 100 µM (inactive)	> 100 µM (inactive)	> 100 µM (inactive)	> 100 µM (inactive)	> 100 µM (inactive)	> 100 µM (inactive)	> 100 µM (inactive)	> 100 µM (inactive)	> 100 µM (inactive)	> 100 µM (inactive)	> 100 µM (inactive)	> 100 µM (inactive)	> 100 µM (inactive)	> 100
O=C1N(c2ccccc2)C2(O)C(=O)c3ccccc3C2(O)N1c1ccccc1 (centres undefined)	> 100 µM (inactive)	> 100 µM (inactive)	> 100 µM (inactive)	> 100 µM (inactive)	> 100 µM (inactive)	> 100 µM (inactive)	> 100 µM (inactive)	> 100 µM (inactive)	> 100 µM (inactive)	> 100 µM (inactive)	> 100 µM (inactive)	> 100 µM (inactive)	> 100 µM (inactive)	> 100
COC(=O)NN=C1C(C)(C)C(=NNC(=O)OC)C1(C)C	> 100 µM (inactive)	> 41.6 µM (inactive)	> 100 µM (inactive)	> 100 µM (inactive)	> 100 µM (inactive)	> 100 µM (inactive)	> 100 µM (inactive)	> 100 µM (inactive)	> 44.9 µM (inactive)	> 100 µM (inactive)	> 35.8 µM (inactive)	> 100 µM (inactive)	> 100 µM (inactive)	> 90.6
Cc1cc(C)cc(-n2c3nc(=O)n(C)c(=O)c-3nc3ccccc32)c1	18.5 µM (inactive)	13.4 µM (inactive)	–	> 100 µM (inactive)	42.3 µM (inactive)	81.7 µM (inactive)	27.4 µM (inactive)	15.3 µM (inactive)	23.2 µM (inactive)	> 100 µM (inactive)	29.3 µM (inactive)	16.7 µM (inactive)	17.7 µM (inactive)	21
CC(=O)CC(=O)Nc1ccccc1C(F)(F)F	> 100 µM (inactive)	> 100 µM (inactive)	> 100 µM (inactive)	> 100 µM (inactive)	> 100 µM (inactive)	> 100 µM (inactive)	> 100 µM (inactive)	–	> 100 µM (inactive)	> 100 µM (inactive)	> 100 µM (inactive)	> 100 µM (inactive)	> 100 µM (inactive)	> 100
COc1cc2c(c(OC(C)=O)c1OC(C)=O)-c1ccc(SC)c(=O)cc1C(NC(C)=O)CC2 (centres undefined)	9.82 µM (inactive)	0.618 µM (active)	3.24 µM (inactive)	8.91 µM (inactive)	28.7 µM (inactive)	3.87 µM (inactive)	24 µM (inactive)	1.07 µM (active)	0.631 µM (active)	4.83 µM (inactive)	1.13 µM (inactive)	1.12 µM (inactive)	32.1 µM (inactive)	31.7
C/C(=N\NC(=S)N(C)C)c1ncc[nH]1	–	3.13 µM (inactive)	7.48 µM (inactive)	6 µM (inactive)	13.3 µM (inactive)	2.18 µM (inactive)	2.45 µM (inactive)	2.92 µM (inactive)	2.82 µM (inactive)	3.94 µM (inactive)	3.08 µM (inactive)	2.51 µM (inactive)	4.51 µM (inactive)	3.77
CC1(C)CCC[C@@]2(C)C1C[C@H](O)[C@@]1(C)O[C@@](C)([C@H](O)CO)CCC21 (some centres undefined)	35.7 µM (inactive)	25.3 µM (inactive)	34.6 µM (inactive)	–	22.9 µM (inactive)	44 µM (inactive)	26 µM (inactive)	33.5 µM (inactive)	29.7 µM (inactive)	20.9 µM (inactive)	–	28.6 µM (inactive)	> 100 µM (inactive)	45.5
CCCc1c[nH]c(-c2ccc(-c3cc(CCC)c(C=O)[nH]3)s2)c1	18.9 µM (inactive)	14.1 µM (inactive)	13.6 µM (inactive)	21.7 µM (inactive)	15.3 µM (inactive)	14.6 µM (inactive)	19.2 µM (inactive)	17.3 µM (inactive)	21.8 µM (inactive)	7.82 µM (inactive)	14 µM (inactive)	16.9 µM (inactive)	–	14.6

Source: ChEMBL document CHEMBL1201862, “PubChem BioAssay data set” (2004)
